Measured values as given in PubChem BioAssay (NCI).
“And” between values parts separate entries of the source, which are not always exact repeats. Equal entries are not always repeated.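 Values below derive from 48-hour exposures of cells grown in 96-well plates, with endpoints linearly interpolated between the two concentrations bracketing the appropriate inhibition level. GI50 = concentration required for 50% inhibition of growth. TGI: concentration producing complete growth inhibition.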

Columns and labels:
Assay in all cases: inhibition of tumour cell growth, NCI panel, 48 h
[1] = test system: SR leukemia
[2] = test system: CCRF-CEM leukemia
[3] = test system: U251 CNS
[4] = test system: XF 498 CNS
[5] = test system: 786-0 renal
[6] = test system: SF-539 CNS
[7] = test system: T-47D breast
[8] = test system: OVCAR-5 ovarian
[9] = test system: SK-MEL-28 melanoma
[10] = test system: DMS 273 small cell lung

Row | Compound | TGI [1] | TGI [2] | TGI [3] | TGI [4] | TGI [5] | TGI [6] | TGI [7] [µM] | TGI [8] | TGI [9] | TGI [10] | GI50 [2] | GI50 [3] | GI50 [4] | GI50 [6] | GI50 [9] | GI50 [10] | GI50 [5] | GI50 [8]
1 | O=C1/C(=C/c2ccc(Cl)cc2)CCC1CN1CCOCC1 (stereo not given) | 5.29 µM | 6.84 µM | 40.2 µM | 4.97 µM | 6.2 µM | 34.6 µM | 6.25 | 45.7 µM | 21.5 µM | 11.9 µM | – | – | – | – | – | – | – | –
2 | O=C1C(Br)=C(Br)C(=O)c2ccccc21 | 9.54 µM | – | 31.3 µM and 4.68 µM | 29.7 µM and 9.41 µM | 32.3 µM and 23.5 µM | 36 µM and 10.6 µM | 12.5 | 41.7 µM and 22.9 µM | 32.8 µM and 15.6 µM | > 100 µM and 23.5 µM | 9.85 µM and 2.25 µM | 17.5 µM and 2.16 µM | 15.1 µM and 2.98 µM | 19.4 µM and 2.82 µM | 18.4 µM and 4.98 µM | 49.9 µM and 9.23 µM | – | –
3 | CC#CC#C/C=C1\C=CC2(OC=CC2OC(C)=O)O1 (stereo not given) | 89.6 µM and > 94.5 µM | 40.3 µM and 72.9 µM | 43.1 µM and 33.2 µM | 37.7 µM | > 100 µM and 33.6 µM | 76.9 µM and 48.8 µM | 73.9 | > 100 µM | > 100 µM | 49.1 µM | – | – | – | – | 43.5 µM | – | 44.3 µM and 18.1 µM | 30.6 µM and 9.87 µM
4 | COC1C(CO)OC(n2c3c(Cl)cccc3c3c4c(c5c6cccc(Cl)c6[nH]c5c32)C(=O)NC4=O)C(O)C1O (stereo not given) | – | > 100 µM | 5.12 µM | 0.931 µM | 2.32 µM | 0.489 µM | > 21.1 | > 41.9 µM | > 73.5 µM | 1.3 µM | – | – | – | – | – | – | – | –
5 | CC(=O)OCCOCNC(=S)N/N=C(\C)c1cccs1 | > 100 µM | > 100 µM | > 100 µM | > 100 µM | > 100 µM | > 100 µM | – | > 100 µM | > 100 µM | > 100 µM | – | – | – | – | – | – | – | –
6 | CNc1ccc([N+](=O)[O-])c2c(NCCCN(C)C)ccnc12 | > 100 µM | > 100 µM | > 100 µM | > 100 µM | > 100 µM | > 100 µM | – | > 100 µM | > 100 µM | > 100 µM | – | – | – | – | – | – | – | –
